{
  "source": "patent US20050266081A1",
  "about": "“Antimicrobial silver hydrogels” (priority 2004, published 2005)",
  "origin": "cited, not measured here",
  "test_system": "skin cell respiration",
  "details": "application of 1 to 10 mg/ml of silver; probable factor in the interference of wound healing",
  "data": [
    {"substance": "silver", "values": [
      {"measurement": "inhibition of skin cell respiration", "value": 30, "unit": "%"}
    ]}
  ]
}
